Patent US20030203975A1, “Anti-cancer agents” (priority 1998, published 2003)
Counter-ions that a name gives are not always drawn.

How the values were obtained:
[1] = test system: DNA: Calf thymus sodium salt; experiment: DNA binding assay, Hoechst dye displacement; parameters: key: NB = Not binding; details: concentration required to displace 50% of the Hoescht Dye; 20 μM DNA, 2 μM dye
Protocol: (§1) The propensity of selected compounds to bind to DNA in the absence of topos was measured in order to identify compounds that would bind weakly, or not at all. […] A […] was used determine binding constants of the compound to DNA by displacement of either ethidium bromide (an intercalator) or Hoechst dye 33258 (a groove binder) which form a DNA-bound fluorescent complex measured by fluorescence spectroscopy.
(§2) DNA Binding Assay Protocol
(§3) In order to detect the strength and mode of anthraquinone compound binding to DNA the displacement of known DNA binders was detected by measuring the fluorescence of a DNA/fluorescent compound complex. The addition of known concentrations of ethidium bromide, an interchelator, and Hoescht Dye, a groove binder, cause a fluorescent DNA/binder complex that can be detected and the fluorescence quantified. The addition of anthraquinone compounds displaces the interchelators or groove binders, depending on the compound mode of DNA binding, and therefore reduces the fluorescence accordingly. The preferred binding action of compounds can be quantified by determining the reduction in fluorescence resulting from a given concentration of compound. The quantification of a compounds ability to bind to DNA is expressed, as the concentration required to displace 50% of the ethidium bromide or Hoescht Dye, thus reducing the fluorescence by 50%. Therefore, the values produced are QE50 for ethidium, bromide, or QH50 for Hoescht Dye.
(§4) Compound: 300, 60, 10 and 10/6gM (1.66 μM) solution concentrations were prepared for use in the assay to produce a range of compound. Concentrations. 100, 200 and 300 μl of each dilution were used in the assay reaction. This provides a range of concentrations: −30, 20, 10, 6, 4, 2, 1, 0.67, 0.33, 0.17, 0.11, 0.06, 0.00 μM in the assay environment. Intermediate concentrations can be utilised to enhance the accuracy of the displacement concentration determination.
(§5) Buffer: 100 mM Tris, NaCI 500 mM. DNA: Calf thymus sodium salt. Stock solution of 200 μM was prepared in 10× assay buffer. Dilution of DNA therefore provided the correct concentration of assay buffer in the assay cell.300 μg DNA was used in 3 ml reaction mixture therefore 20 μM DNA concentration. Hoescht Dye 2 μM final concentration, therefore 100 μl of a 60 μM stock solution was added to a 3 ml assay. Ethidium Bromide 2 μM final concentration therefore 100 μl of a 60 μM stock solution was added to a 3 ml assay. Distilled H2O Water was added to produce 3 ml reaction volume. Order of addition: 1. DNA, 2. Water, 3. Drug, 4. Dye
(§6) The assay was completed with both Hoescht Dye and Ethidium. Bromide for each compound. The ethidium bromide is a DNA inter-chelator, Hoescht Dye is a minor groove binder. 100, 200 and […] of the lowest compound dilution was assayed. This procedure was repeated with all further dilution's. This provided a curve of fluorescence intensity decrease with increasing compound concentration. QE50 and QH50 values were determined by extrapolating the concentration of compound at the point where the fluorescence intensity was reduced by 50%. Controls involving compound only and ethidium. bromide or Hoechst Dye without compound were carried out for each experiment. Two readings for each concentration of compound were performed per experiment, each experiment was repeated at least three times. Fluorometer: Perkin Elmer Luminescence Spectrometer LS 50B.

[2] = test system: MAC 15A adenocarcinoma of the colon; experiment: In vitro chemosensitivity against MAC 15A adenocarcinoma (MTT assay); type: cell-based; details: Mus musculus, MAC15A, 96 hours continuous exposure
Protocol: In Vitro Activity Against MAC 15A Adenocarcinoma.
MAC 15A cells were grown in RPMI 1640 medium supplemented with 10% foetal calf serum containing a 1% antibiotic mixture under standard tissue culture conditions and were maintained at 37° C. in a humidified atmosphere of 5% CO2 in air. Cells were harvested from a stock culture in exponential growth phase and plated in 96-well flat-bottomed plates to achieve a final density of 2×10^3 cells per well. After 2 hours incubation medium was replaced with either fresh medium containing 0.5% DMSO (control) or medium containing test compound dissolved in DMSO at a concentrations from 10 mM to 1 nM. Chemosensitivity was assessed using MTT assay by the method of Plumb et al Cancer Research 49 (1989) 4435-4440.
Following 96 hours continuous exposure to drug at 37° C. cells were incubated with fresh drug-free medium immediately prior to addition of MTT solution (5 mg/ml). Medium and MTT were removed after 4 hours and 150 μl of DMSO was added. For each plate the absorbance of the resulting solution was measured at the analytical wavelength 550 nm for formazan product, using a Labsystem Mutiskan. IC50 values were obtained from growth curves of drug concentration against % survival and are expressed in μm.

[3] = test system: DNA: Calf thymus sodium salt; experiment: DNA binding assay, ethidium bromide displacement; parameters: key: NB = Not binding; details: concentration required to displace 50% of the ethidium bromide; 20 μM DNA, 2 μM dye
Protocol: as §1, §2, §3, §4, §5, §6

SMILES | melting point [°C] | QH50 Minor groove binding [1] | IC50 [2] [µM] | QE50 Intercalating [3] | IC50 ([2]; 96 h) [µM]
CC(C)C[C@H](NC(=O)OC(C)(C)C)C(=O)NCC(=O)OCCCNc1cccc2c1C(=O)c1ccccc1C2=O | 86 | – | – | – | –
CC(C)(C)OC(=O)N[C@H](Cc1ccccc1)C(=O)OCCCNc1cccc2c1C(=O)c1ccccc1C2=O | 168 | – | – | – | –
CC(C)(C)OC(=O)N1CCC[C@@H]1C(=O)OCCCNc1cccc2c1C(=O)c1ccccc1C2=O | 120 | – | – | – | –
C[C@@H](C(=O)OCCCCNc1cccc2c1C(=O)c1ccccc1C2=O)N(C)C(=O)OC(C)(C)C | 62 | – | – | – | –
NCC(=O)OCCCCNc1cccc2c1C(=O)c1ccccc1C2=O (as salt: trifluoroacetate) [Example 81, 1-[4-(glycyloxy)butylamino]anthracene-9,10-dione trifluoroacetate] | 154 | – | – | – | –
C[C@H](N)C(=O)OCCCNc1cccc2c1C(=O)c1ccccc1C2=O.O=C(O)C(F)(F)F [Example 29, 1-[3-(L-alanyloxy)propylamino]anthracene-9,10-dione trifluoroacetate] | 126 | NB | 9.7 | NB | –
N[C@@H](Cc1ccccc1)C(=O)OCCNc1cccc2c1C(=O)c1ccccc1C2=O.O=C(O)C(F)(F)F [Example 33, 1-[2-(L-phenylalanyloxy)ethylamino]anthracene-9,10-dione trifluoro-acetate] | – | NB | – | NB | –
C[C@H](NC(=O)OC(C)(C)C)C(=O)OCCCCNc1cccc2c1C(=O)c1ccccc1C2=O [Example 42, 1-[4-(N-tertiarybutoxycarbonyl-L-alanyloxy)butylamino] anthracene-9,10-dione] | 102 | – | – | – | –
C[C@@H](NC(=O)OC(C)(C)C)C(=O)OCCCCNc1cccc2c1C(=O)c1ccccc1C2=O [Example 44, 1-[4-(N-tertiarybutoxycarbonyl-D-alanyloxy)butylamino] anthracene-9,10-dione] | 100 | – | – | – | –
CC(C)[C@H](N)C(=O)OCCCCNc1ccc(O)c2c1C(=O)c1ccccc1C2=O.O=C(O)C(F)(F)F [Example 53, 4-hydroxy-1-[4-(L-valyloxy)butylamino]anthracene-9,10-dione tri-fluoroacetate] | – | 4.4 µM | – | 2.9 µM | 5.3
CC(C)(C)OC(=O)NCC(=O)OCCNc1cccc2c1C(=O)c1ccccc1C2=O [Example 58, 1-[2-(N-tertiarybutoxycarbonylglycyloxy)ethylamino]anthracene-9,10-dione] | 122 | – | – | – | –
NCC(=O)OCCNc1cccc2c1C(=O)c1ccccc1C2=O.O=C(O)C(F)(F)F [Example 59, 1-[2-(glycyloxy)ethylamino]anthracene-9,10-dione trifluoroacetate] | 180 | – | 3.5 | – | –
NCC(=O)OCCCNc1cccc2c1C(=O)c1ccccc1C2=O.O=C(O)C(F)(F)F [Example 61, 1-[3-(glycyloxy)propylamino]anthracene-9,10-dione trifluoroacetate] | 198 | – | 10.6 | – | –
C[C@@H](N)C(=O)OCCCNc1cccc2c1C(=O)c1ccccc1C2=O.O=C(O)C(F)(F)F [Example 63, 1-[3-(D-alanyloxy)propylamino]anthracene-9,10-dione trifluoroacetate] | 134 | NB | 6.9 | NB | –
N[C@H](Cc1ccccc1)C(=O)OCCCNc1cccc2c1C(=O)c1ccccc1C2=O.O=C(O)C(F)(F)F [Example 65, 1-[3-(D-phenylalanyloxy)propylamino]anthracene-9,10-dione trifluoro-acetate] | 102 | – | 4.8 | – | –
CC(C)(C)OC(=O)NCC(=O)OCCCCNc1cccc2c1C(=O)c1ccccc1C2=O [Example 80, 1-[4-(N-tertiarybutoxycarbonylglycyloxy)butylamino]anthracene-9,10-dione] | 70 | – | – | – | –
CN(CC(=O)OCCCCNc1cccc2c1C(=O)c1ccccc1C2=O)C(=O)OC(C)(C)C [Example 82, 1-[4-(N-tertiarybutoxycarbonylsarcosyloxy)butylamino]anthracene-9,10-dione] | 90 | – | – | – | –
CNCC(=O)OCCCCNc1cccc2c1C(=O)c1ccccc1C2=O.O=C(O)C(F)(F)F [Example 83, 1-[4-(sarcosyloxy)butylamino]anthracene-9,10-dione trifluoroacetate] | 132 | – | 7.2 | – | –
CC[C@H](N)C(=O)OCCCCNc1cccc2c1C(=O)c1ccccc1C2=O.O=C(O)C(F)(F)F [Example 87, (S)-1-[4-(2-aminobutanoyloxy)butylamino]-anthracene-9,10-dione trifluoroacetate] | 118 | – | 3 | – | –
CN[C@@H](C)C(=O)OCCCCNc1cccc2c1C(=O)c1ccccc1C2=O.O=C(O)C(F)(F)F [Example 91, 1-[4-(N-methyl-L-alanyloxy)butylamino]anthracene-9,10-dione tri-fluoroacetate] | 84 | – | – | – | 4.8
NCC(=O)OCCCNc1ccc(O)c2c1C(=O)c1ccccc1C2=O.O=C(O)C(F)(F)F [Example 123, 4-hydroxy-1-[3-(glycyloxy)propylamino]anthracene-9,10-dione tri-fluoroacetate] | 188 | – | – | – | 0.3
NCC(=O)OCCCNc1ccc(O)c2c1C(=O)c1c(O)cccc1C2=O.O=C(O)C(F)(F)F [Example 127, 4,8-dihydroxy-1-[3-(glycyloxy)propylamino]anthracene-9,10-dione trifluoroacetate] | 196 | – | 1.3 | – | –
NCC(=O)N1CCC[C@H]1C(=O)OCCCNc1cccc2c1C(=O)c1ccccc1C2=O.O=C(O)C(F)(F)F [Example 131, 1-[3-(glycyl-L-prolyloxy)propylamino]anthracene-9,10-dione tri-fluoroacetate] | 146 | – | – | – | 2.5
CC(C)C[C@H](N)C(=O)NCC(=O)OCCCNc1cccc2c1C(=O)c1ccccc1C2=O.O=C(O)C(F)(F)F [Example 133, 1-[3-(L-leucylglycyloxy)propylamino]anthracene-9,10-dione trifluoroacetate] | 100 | – | 1.2 | – | –
O=C(O)C(F)(F)F.O=C1c2ccccc2C(=O)c2c(NCCOC(=O)[C@@H]3CCCN3)cccc21 [Example 137, 1-[2-(prolyloxy)ethylamino]anthracene-9,10-dione trifluoroacetate] | – | NB | 33.5 | NB | –
O=C1c2c(O)ccc(O)c2C(=O)c2c(NCCNCCO)ccc(NCCNCCO)c21 [Mitoxantrone, reference compound] | – | 1.2 ± 0.3 µM | – | 0.8 ± 0.3 µM | –
